What is called EC50 is the concentration needed to bring the measured effect to its halfway point.

The structures appear in SMILES notation.

This assay has as its system HEK293T cells carrying the ATF4 luciferase reporter. Kind of assay: ATF4-Luc assay, in vitro model of Vanishing Cell White Matter Disease (VWMD). In kind it is cell-based. Particulars: Homo sapiens, HEK-293T, 1 μg/mL tunicamycin, 7 hours, One Glo luminescence. The procedure, abridged: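 Stable HEK293T line with human ATF4 5′-UTR–firefly luciferase reporter treated with 1 μg/mL tunicamycin plus 200 nM compound for 7 h. Luminescence read; EC50 derived.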
Take `O=C(COc1ccc(Cl)c(Cl)c1)NC12CCC(NC(=O)c3cc(C(F)F)no3)(CC1)C[C@@H]2O` [Compound 758, N-{(3S)-4-[2-(3,4-dichlorophenoxy)acetamido]-3-hydroxybicyclo[2.2.2]octan-1-yl}-3-(difluoromethyl)-1,2-oxazole-5-carboxamide]: the EC50 is below 0.05 µM. With `Cc1cc(C(=O)NC23CCC(NC(=O)COc4ccc(Cl)c(Cl)c4)(CC2)[C@@H](O)C3)on1` [Compound 759, N-{(3S)-4-[2-(3,4-dichlorophenoxy)acetamido]-3-hydroxybicyclo[2.2.2]octan-1-yl}-3-methyl-1,2-oxazole-5-carboxamide] the figure was below 0.05 µM. The value for `O=C(COc1ccc(Cl)c(F)c1)NC12CC(NC(=O)c3cnc4cccnn34)(C1)C2` [Compound 760, N-{3-[2-(4-chloro-3-fluorophenoxy)acetamido]bicyclo[1.1.1]pentan-1-yl}imidazo[1,2-b]pyridazine-3-carboxamide] was above 2 µM. The value for `CCc1ccc(C(=O)NC23CC(NC(=O)COc4ccc(Cl)c(F)c4)(C2)C3)cc1` [Compound 761, N-{3-[2-(4-chloro-3-fluorophenoxy)acetamido]bicyclo[1.1.1]pentan-1-yl}-4-ethylbenzamide] was above 2 µM; that for `O=C(COc1ccc(Cl)c(F)c1)NC12CC(NC(=O)c3ccnnc3)(C1)C2` [Compound 762, N-{3-[2-(4-chloro-3-fluorophenoxy)acetamido]bicyclo[1.1.1]pentan-1-yl}pyridazine-4-carboxamide] was above 2 µM; that for `COc1cc(C(=O)NC23CC(NC(=O)COc4ccc(Cl)c(F)c4)(C2)C3)ccn1` [Compound 763, N-{3-[2-(4-chloro-3-fluorophenoxy)acetamido]bicyclo[1.1.1]pentan-1-yl}-2-methoxypyridine-4-carboxamide] was above 2 µM. As to `O=C(COc1ccc(Cl)c(F)c1)NC12CC(NC(=O)c3cccc(OC(F)F)c3)(C1)C2` [Compound 764, N-{3-[2-(4-chloro-3-fluorophenoxy)acetamido]bicyclo[1.1.1]pentan-1-yl}-3-(difluoromethoxy)benzamide], the EC50 was above 2 µM.

Take `CC(=O)Nc1ccc(F)cc1C(=O)NC12CC(NC(=O)COc3ccc(Cl)c(F)c3)(C1)C2` [Compound 765, 2-acetamido-N-{3-[2-(4-chloro-3-fluorophenoxy)acetamido]bicyclo[1.1.1]pentan-1-yl}-5-fluorobenzamide]: the EC50 lay within 0.05 to 0.25 µM. The value for `O=C(COc1ccc(Cl)c(F)c1)NC12CC(NC(=O)c3ccc4nccnc4c3)(C1)C2` [Compound 766, N-{3-[2-(4-chloro-3-fluorophenoxy)acetamido]bicyclo[1.1.1]pentan-1-yl}quinoxaline-6-carboxamide] was above 2 µM; that for `Cn1cnc2cc(C(=O)NC34CC(NC(=O)COc5ccc(Cl)c(F)c5)(C3)C4)ccc21` [Compound 767, N-{3-[2-(4-chloro-3-fluorophenoxy)acetamido]bicyclo[1.1.1]pentan-1-yl}-1-methyl-1H-benzimidazole-5-carboxamide] was above 2 µM. As to `NS(=O)(=O)c1cccc(C(=O)NC23CC(NC(=O)COc4ccc(Cl)c(F)c4)(C2)C3)c1` [Compound 768, N-{3-[2-(4-chloro-3-fluorophenoxy)acetamido]bicyclo[1.1.1]pentan-1-yl}-3-sulfamoylbenzamide], the EC50 was above 2 µM.

Regarding `O=C(COc1ccc(Cl)c(F)c1)NC12CC(NC(=O)c3ncoc3C3CC3)(C1)C2` [Compound 769, N-{3-[2-(4-chloro-3-fluorophenoxy)acetamido]bicyclo[1.1.1]pentan-1-yl}-5-cyclopropyl-1,3-oxazole-4-carboxamide], the EC50 was above 2 µM. With `O=C(COc1ccc(Cl)c(F)c1)NC12CC(NC(=O)c3ncc(Cl)cc3F)(C1)C2` [Compound 770, 5-chloro-N-{3-[2-(4-chloro-3-fluorophenoxy)acetamido]bicyclo[1.1.1]pentan-1-yl}-3-fluoropyridine-2-carboxamide], the EC50 fell in the range of 1 to 2 µM. `O=C(COc1ccc(Cl)c(F)c1)NC12CC(NC(=O)c3csc(N4CCOCC4)n3)(C1)C2` [Compound 771, N-{3-[2-(4-chloro-3-fluorophenoxy)acetamido]bicyclo[1.1.1]pentan-1-yl}-2-(morpholin-4-yl)-1,3-thiazole-4-carboxamide]: the EC50 was above 2 µM. With `O=C(COc1ccc(Cl)c(F)c1)NC12CC(NC(=O)c3cn4cccnc4n3)(C1)C2` [Compound 772, N-{3-[2-(4-chloro-3-fluorophenoxy)acetamido]bicyclo[1.1.1]pentan-1-yl}imidazo[1,2-a]pyrimidine-2-carboxamide] the figure was above 2 µM. With `O=C(COc1ccc(Cl)c(F)c1)NC12CC(NC(=O)c3ccc4ncsc4c3)(C1)C2` [Compound 773, N-{3-[2-(4-chloro-3-fluorophenoxy)acetamido]bicyclo[1.1.1]pentan-1-yl}-1,3-benzothiazole-6-carboxamide] the figure was above 2 µM. The value for `Cc1nc2ccc(C(=O)NC34CC(NC(=O)COc5ccc(Cl)c(F)c5)(C3)C4)cc2s1` [Compound 774, N-{3-[2-(4-chloro-3-fluorophenoxy)acetamido]bicyclo[1.1.1]pentan-1-yl}-2-methyl-1,3-benzothiazole-6-carboxamide] was above 2 µM; that for `CCn1cncc1C(=O)NC12CC(NC(=O)COc3ccc(Cl)c(F)c3)(C1)C2` [Compound 775, N-{3-[2-(4-chloro-3-fluorophenoxy)acetamido]bicyclo[1.1.1]pentan-1-yl}-1-ethyl-1H-imidazole-5-carboxamide] was above 2 µM.

With `Cn1c(=O)n(C)c2cc(C(=O)NC34CC(NC(=O)COc5ccc(Cl)c(F)c5)(C3)C4)ccc21` [Compound 776, N-{3-[2-(4-chloro-3-fluorophenoxy)acetamido]bicyclo[1.1.1]pentan-1-yl}-1,3-dimethyl-2-oxo-2,3-dihydro-1H-benzimidazole-5-carboxamide], the EC50 is above 2 µM. For `Cc1cc(Cl)cnc1C(=O)NC12CC(NC(=O)COc3ccc(Cl)c(F)c3)(C1)C2` [Compound 777, 5-chloro-N-{3-[2-(4-chloro-3-fluorophenoxy)acetamido]bicyclo[1.1.1]pentan-1-yl}-3-methylpyridine-2-carboxamide], the EC50 is above 2 µM. Regarding `CC(=O)NCc1ccc(C(=O)NC23CC(NC(=O)COc4ccc(Cl)c(F)c4)(C2)C3)o1` [Compound 778, 5-(acetamidomethyl)-N-{3-[2-(4-chloro-3-fluorophenoxy)acetamido]bicyclo[1.1.1]pentan-1-yl}furan-2-carboxamide], the EC50 is above 2 µM.

On to `Cc1nc2ccc(C(=O)NC34CC(NC(=O)COc5ccc(Cl)c(F)c5)(C3)C4)cc2nc1C` [Compound 779, N-{3-[2-(4-chloro-3-fluorophenoxy)acetamido]bicyclo[1.1.1]pentan-1-yl}-2,3-dimethylquinoxaline-6-carboxamide], for which the EC50 was above 2 µM.

Turning to `Cc1c(Cl)c(C(=O)NC23CC(NC(=O)COc4ccc(Cl)c(F)c4)(C2)C3)nn1C` [Compound 780, 4-chloro-N-{3-[2-(4-chloro-3-fluorophenoxy)acetamido]bicyclo[1.1.1]pentan-1-yl}-1,5-dimethyl-1H-pyrazole-3-carboxamide], the EC50 was above 2 µM.

As for `O=C(COc1ccc(Cl)c(F)c1)NC12CC(NC(=O)c3cccc(C(F)(F)F)n3)(C1)C2` [Compound 781, N-{3-[2-(4-chloro-3-fluorophenoxy)acetamido]bicyclo[1.1.1]pentan-1-yl}-6-(trifluoromethyl)pyridine-2-carboxamide], the EC50 is above 2 µM. Turning to `O=C(COc1ccc(Cl)c(F)c1)NC12CC(NC(=O)c3ncn4ccccc34)(C1)C2` [Compound 782, N-{3-[2-(4-chloro-3-fluorophenoxy)acetamido]bicyclo[1.1.1]pentan-1-yl}imidazo[1,5-a]pyridine-1-carboxamide], the concentration for a half-maximal effect (EC50) was above 2 µM. Take `O=C(COc1ccc(Cl)c(F)c1)NC12CC(NC(=O)c3ccc(-n4cncn4)cc3)(C1)C2` [Compound 783, N-{3-[2-(4-chloro-3-fluorophenoxy)acetamido]bicyclo[1.1.1]pentan-1-yl}-4-(1H-1,2,4-triazol-1-yl)benzamide]: the EC50 is above 2 µM. The value for `Cc1ncc(C(=O)NC23CC(NC(=O)COc4ccc(Cl)c(F)c4)(C2)C3)c(C)n1` [Compound 784, N-{3-[2-(4-chloro-3-fluorophenoxy)acetamido]bicyclo[1.1.1]pentan-1-yl}-2,4-dimethylpyrimidine-5-carboxamide] was above 2 µM. For `Cn1nnc2cc(C(=O)NC34CC(NC(=O)COc5ccc(Cl)c(F)c5)(C3)C4)ccc21` [Compound 785, N-{3-[2-(4-chloro-3-fluorophenoxy)acetamido]bicyclo[1.1.1]pentan-1-yl}-1-methyl-1H-benzotriazole-5-carboxamide], the EC50 was above 2 µM.

With `Cn1ncc2cccc(C(=O)NC34CC(NC(=O)COc5ccc(Cl)c(F)c5)(C3)C4)c21` [Compound 786, N-{3-[2-(4-chloro-3-fluorophenoxy)acetamido]bicyclo[1.1.1]pentan-1-yl}-1-methyl-1H-indazole-7-carboxamide], the EC50 was above 2 µM. The value for `Cc1ccc2nc(C(=O)NC34CC(NC(=O)COc5ccc(Cl)c(F)c5)(C3)C4)cn2c1` [Compound 787, N-{3-[2-(4-chloro-3-fluorophenoxy)acetamido]bicyclo[1.1.1]pentan-1-yl}-6-methylimidazo[1,2-a]pyridine-2-carboxamide] was above 2 µM; that for `COc1cc(C(=O)NC23CC(NC(=O)COc4ccc(Cl)c(F)c4)(C2)C3)c(OC)nn1` [Compound 788, N-{3-[2-(4-chloro-3-fluorophenoxy)acetamido]bicyclo[1.1.1]pentan-1-yl}-3,6-dimethoxypyridazine-4-carboxamide] was above 2 µM. For `Cn1nc(C(=O)NC23CC(NC(=O)COc4ccc(Cl)c(F)c4)(C2)C3)cc1C(F)(F)F` [Compound 789, N-{3-[2-(4-chloro-3-fluorophenoxy)acetamido]bicyclo[1.1.1]pentan-1-yl}-1-methyl-5-(trifluoromethyl)-1H-pyrazole-3-carboxamide], the EC50 was 0.05 to 0.25 µM.
